Read-outs that look alike come from different tables or passages of the source.
Legend:
DENV2 = assay: Cell-based Flavivirus Immunodetection (CFI) assay, DENV envelope protein production in A549 cells; set-up: species or system dengue virus serotype 2; conditions: ± standard deviation, at least three independent experiments
Protocol: (§1) The antiviral activity of the test compounds (1, 3, 6, and 7) was examined in the Cell-based Flavivirus Immuno-assay (CFI assay). The CFI assay is based on a quantitative immunodetection of the DENV envelope protein production in A549 cells. Infection of the A549 cells by the DENV2 was allowed to occur in the presence of each test compound, after which virus load was measured by quantifying the amount of envelope protein that is produced using enzyme linked immunosorbent assay (ELISA). To ensure that the inhibition of the envelope production was not due to cell death, the cytotoxicity of each test compound was assessed via the cell viability assay.
A549 cells (catalog no. CCL-185; ATCC, Manassas, VA, USA) were maintained in Ham’s F-12 medium with 10% fetal bovine serum (FBS) and 1% penicillin-streptomycin at 37 °C in 5% CO2. The DENV2 used in this study was prepared by inoculating monolayers of C6/36 cells grown in RPMI 1640 medium with 5% FBS and 1% penicillin-streptomycin. After incubation at 28 °C for four to five days, the cell culture supernatant was collected after clarification of cell debris and was stored at −80 °C until used.
A549 cells were trypsinised and diluted to a concentration of 2 × 10^5 cells/mL in culture medium containing 2% FBS. A total of 100 μL of the cell suspension (2 × 10^4 cells) was dispensed into each well of a 96-well tissue culture plate. The cells were grown overnight in culture medium at 37 °C with 5% CO2 and were then infected with the DENV at a multiplicity of infection of 0.3 in the presence of different concentrations of the test compounds for 1 h at 37 °C with 5% CO2. The virus inoculum was removed and then replaced with fresh medium containing the test compounds and the cells were incubated at 37 °C with 5% CO2 for 48 h. The cells were washed once with phosphate-buffered saline (PBS) and fixed with cold methanol for 10 min. After the fixed cells were washed twice with PBS, they were blocked with PBS containing 1% FBS and 0.05% Tween 20 for 1 h at room temperature. A primary antibody (antibody 4G2) solution was then added, and the mixture was incubated for 3 h. The cells were washed three times with PBS, followed by incubation for 1 h with horseradish peroxidase-conjugated anti-mouse immunoglobulin G. After the cells were washed three times with PBS, 3,3′,5,5′-tetramethylbenzidine substrate solution was added to each well, and the reaction was stopped by adding 0.5 M sulfuric acid. The absorbencies of the solutions were measured with a Tecan Safire II plate reader (Tecan Group Ltd., Männedorf, Switzerland) at 450 nm for viral antigen quantification. Dose-response curves were plotted from the mean absorbance versus the log of the concentration of the test compound. The IC50, that is, the concentration of the test compound that inhibited the level of viral envelope protein production by 50%, was calculated by nonlinear regression analysis. All of the experiments were conducted in triplicate.

DENV [1] = tested on: DENV; set-up: method as in ref 9 (Lin and Chen, 2016); conditions: small scale clinical study; ref 9 (Lin and Chen, 2016); cited from earlier work
[2] = Celltiter-Glo Luminescent cell viability assay (cytotoxicity); assay type: cell-based; conditions: human
Protocol: as §1
(§2) The cytotoxicities of the test compounds were measured by a Celltiter-Glo Luminescent cell viability assay, according to the manufacturer’s protocol (catalog no. G7570; Promega, Madison, WI, USA). The A549 cell preparation and compound addition were performed, as described above under the “CFI assay”. After 48 h of incubation, the luminescent signals for cells treated with the test compounds were compared to those for cells treated with dimethyl sulfoxide (DMSO) to determine the CC50. […] All of the experiments were conducted in triplicate.

DENV [3] = tested on: DENV; set-up: method as in ref 8 (Koff et al., 1980); conditions: all four serotypes, ref 8 (Koff et al., 1980); cited from earlier work
A549 cells = assay: Celltiter-Glo Luminescent cell viability assay (cytotoxicity); assay type: cell-based; conditions: A549 cells, 48 h, maximum concentration tested 100 µM
Protocol: as §1, §2

DENV2 NS2B/NS3 protease = tested on: DENV2 NS2B/NS3 protease; set-up: method as in ref 6 (Timiri et al., 2015); conditions: in vitro; ref 6 (Timiri et al., 2015); cited from earlier work
[4] = Dengue virus, DENV2, A549, 48 h, CFI assay, A549 cells infected with DENV2, MOI 0.3, 48 h, read-out: DENV2 IC50
[5] = A549 cells, 48 h, maximum concentration tested 100 µM, read-out: CC50

Row | Structure (SMILES) | IC50 (DENV2; [4]) | CC50 (A549 cells) | CC50 at 48 h [2, 5] | IC50 (DENV2 NS2B/NS3 protease) | other results
1 | NC12CC3CC(CC(C3)C1)C2 [Compound 1, amantadine, reference compound] | > 100 µM |  |  |  | DENV2 IC50 (DENV2; CFI assay, A549 cells infected with DENV2, MOI 0.3, 48 h): did not show significant DENV2 activity; treatment effectiveness in DENV infected patients (DENV [1]): effective treatment option; CC50 at 48 h ([2]; CC50): > 100 µM; anti-DENV activity in vitro (DENV [3]): anti-DENV activity on all four serotypes
2 | O=C(NC12CC3CC(CC(C3)C1)C2)c1ccc(S(=O)(=O)NC23CC4CC(CC(C4)C2)C3)cc1 [Compound 3, N-(adamantan-1-yl)-4-[(adamantan-1-yl)sulfamoyl]benzamide] |  | > 100 µM | < 100 µM |  | IC50 (DENV2; CFI assay, A549 cells infected with DENV2, MOI 0.3, 48 h, read-out: DENV2 IC50): 22.4 ± 7.7 µM; IC50 (DENV2; Dengue virus, DENV2, A549, 48 h, read-out: DENV2 IC50, CFI assay, A549 cells infected with DENV2, MOI 0.3, 48 h): 22.2 µM
3 | O=C(NC12CC3CC(CC(C3)C1)C2)c1ccccc1 [Compound 6, N-(adamantan-1-yl)benzamide] | > 100 µM |  | > 100 µM |  | 
4 | NS(=O)(=O)c1ccc(C(=O)NC23CC4CC(CC(C4)C2)C3)cc1 [Compound 7, N-(adamantan-1-yl)-4-sulfamoylbenzamide] | 42.8 ± 8.6 µM | > 100 µM | < 100 µM |  | 
5 | CCc1ccc(NS(=O)(=O)c2ccc(N3C(=O)c4ccccc4C3=O)cc2)cc1 [SF1] |  |  |  | 48.2 µM | 
6 | O=C1c2ccccc2C(=O)N1c1ccc(S(=O)(=O)Nc2cccc3ccccc23)cc1 [SF2] |  |  |  | 122 µM | 

Source: article PMC6099921, “Microwave Optimized Synthesis of N-(adamantan-1-yl)-4-[(adamantan-1-yl)-sulfamoyl]benzamide and Its Derivatives for Anti-Dengue Virus Activity” (Molecules : A Journal of Synthetic Chemistry and Natural …, 2018)
